Experimental data as given in patent publication US20250369954A1, “PLATFORM AND METHOD TO CO[…] FUN[…] CARD[…] OTHER CELLS ON BOTH SIDES OF A POROUS MEMBRANE” (Government of the United States of America, as represented …, priority 2024, published 2025).

System: hiPSC-CM cells
Test: Impedance measurement of cardiomyocyte beating on the microfluidic device
Format: cell-based, human
Conditions: 1 μM verapamil, after 10 minutes of treatment, hiPSC-CM on porous membrane
Experimental: In one embodiment, human induced pluripotent stem cell-derived cardiomyocytes (hiPSC-CM) were cultured directly on the PET membrane of the microfluidic device.
Cells in this example were trapped in the region of interest within the device using dielectrophoretic cell capture, directing cells from the microfluidic channel to the electrode. In this example, the entire electrode was covered with cells in increasing density from around 1 to 3 minutes. The following parameters for dielectrophoresis were used in this example: 4-6 Vpp, 12 MHz, […] μl min-1.
In one embodiment, hiPSC-CM cells are captured on one side of the porous membrane as in Example 1. The cardiomyocytes are treated with 1 μM verapamil, a Ca^2+ channel blocker used for treating arrhythmia.

`COc1ccc(CCN(C)CCCC(C#N)(c2ccc(OC)c(OC)c2)C(C)C)cc1OC` (stereo not shown) [verapamil] was tested, and the “effect on cardiomyocyte beating (change in impedance)” value was “cessation of cardiomyocyte beating”.
